Reference: US20110165601A1, “ASSAY SYSTEM” (THE UNIVERSITY COURT OF THE UNIVERSITY GLASGOW, priority 2006, published 2011)

What was measured:
ryanodine receptor = target: T1, ryanodine receptor (Oryctolagus cuniculus, UniProt P30957); assay: SR Ca2+ release assay (Ca2+ leak from permeabilised cell aggregates); assay type: cell-based, rabbit; details: after 40 mM caffeine, FIG. 2
T1 construct: The atria were removed and discarded whereas the right and left ventricle was kept for experiments; endogenous in cells; host or cells: isolated rabbit ventricular cardiomyocytes, beta-escin permeabilised, frozen and thawed
Experimental: Ca^2+ uptake is stimulated by addition of an aliquot of Ca^2+. SERCA inhibition is induced by thapsigargin (5 uM).
The cell aggregate preparation is defrosted in 9× volumes of S2 with the addition of 2-3 aliquots of 100 μM CaCl2. The preparation is then aliquoted into the high format wells (96 or 384 well). […] The slow progressive increase in Ca^2+ concentration within the bath reflects Ca^2+ loss from the SR both via the ryanodine receptor and via independent leak pathways. […] As with the assay system above, two options for measurements are possible (i) follow the timecourse of the Ca^2+ release profile in detail by measuring every 1-2 s for 10 mins (ii) measuring the Ca^2+ concentration at a set time (e.g. 10 mins) after initiation of the reaction. Compounds that stimulate the SR Ca^2+ leak will cause the increase of Ca^2+ concentration to occur faster than control (vehicle). Conversely compounds that inhibit the SR Ca^2+ leak will slow the increase of Ca^2+ concentration.

SR Ca2+ ATPase (SERCA) = target: T2, SR Ca2+ ATPase (SERCA) (Oryctolagus cuniculus, UniProt P20647); assay: SR uptake assay in permeabilised cell preparations; assay type: cell-based, rabbit; details: FIG. 1C
T2 construct: The atria were removed and discarded whereas the right and left ventricle was kept for experiments; endogenous in cells; host or cells: isolated rabbit ventricular cardiomyocytes, beta-escin permeabilised, frozen and thawed
T2 sequence (P20647 1-997 isoform P20647-2): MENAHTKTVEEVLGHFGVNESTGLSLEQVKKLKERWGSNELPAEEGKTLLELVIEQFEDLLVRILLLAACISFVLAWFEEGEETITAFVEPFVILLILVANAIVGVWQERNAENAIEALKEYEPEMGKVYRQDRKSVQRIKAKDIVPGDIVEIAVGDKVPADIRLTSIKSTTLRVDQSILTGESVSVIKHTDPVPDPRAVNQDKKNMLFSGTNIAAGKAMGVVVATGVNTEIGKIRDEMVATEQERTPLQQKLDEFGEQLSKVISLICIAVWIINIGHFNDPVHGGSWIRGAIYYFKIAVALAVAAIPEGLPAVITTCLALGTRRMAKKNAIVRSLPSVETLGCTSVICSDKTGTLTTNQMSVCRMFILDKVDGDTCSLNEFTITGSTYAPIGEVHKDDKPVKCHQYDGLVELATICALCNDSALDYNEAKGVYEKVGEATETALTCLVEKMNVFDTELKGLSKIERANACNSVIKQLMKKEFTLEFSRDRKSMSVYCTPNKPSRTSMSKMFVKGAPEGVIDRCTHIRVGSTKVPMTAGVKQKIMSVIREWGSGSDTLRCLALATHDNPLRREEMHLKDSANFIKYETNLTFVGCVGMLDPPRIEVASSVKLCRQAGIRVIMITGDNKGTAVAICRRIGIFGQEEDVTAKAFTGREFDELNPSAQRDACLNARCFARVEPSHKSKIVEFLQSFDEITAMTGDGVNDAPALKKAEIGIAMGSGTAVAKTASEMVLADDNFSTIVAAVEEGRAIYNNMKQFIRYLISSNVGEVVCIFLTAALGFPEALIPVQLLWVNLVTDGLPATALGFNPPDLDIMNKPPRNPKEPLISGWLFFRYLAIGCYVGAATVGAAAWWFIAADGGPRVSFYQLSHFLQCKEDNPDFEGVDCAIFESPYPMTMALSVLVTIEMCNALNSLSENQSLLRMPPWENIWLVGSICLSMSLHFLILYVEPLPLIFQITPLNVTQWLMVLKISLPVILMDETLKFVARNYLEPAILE
Experimental: As indicated above the figure, Ca^2+ was added to increase the [Ca^2+] within the aggregate to ˜1.5 μM. No Ca^2+ uptake occurs due to the absence of Mg^2+ (and therefore MgATP). Addition of Me starts the reaction. The initial increase of [Ca^2+] is caused by displacement of Ca^2+ from ATP.
Aliquots of cells are defrosted gradually with the addition of 9 volumes of S1 solution. This was followed by addition of CaCl2 to increase the free [Ca^2+] to ˜1.5 μM (˜100 μM total Ca^2+). The mixture can then be distributed into the 96 or high format arrays. Incubation of the preparation with the compound of interest can occur for 15-20 mins and the SR uptake reaction began by addition of 5.5 mM MgCl2 (with stirring). This provides the substrate (MgATP) to allow SR uptake of Ca^2+. There are two options for measurement: (i) follow the time course of the Ca^2+ uptake profile in detail by measuring every 1-2 s for up to 10 mins (ii) measuring the Ca^2+ concentration at a set time (e.g. 10 mins) after initiation of the reaction. […] These effects can be monitored in detail (option (i)—see FIG. 1 and description thereof for an example) or by simply measuring Fluo-3 fluorescence at one time point (option (ii)).

myocytes [1] = assay: Trypan blue assay (access of dye into myocytes); assay type: cell-based, rabbit
Source text: (§1) The following description illustrates two methods which were used to test permeabilisation of rabbit myocytes by a batch of beta-escin, and to compare two different commercial batches of saponin.
(§2) The haemocytometer method of cell counting was used to count the number of non-permeable myocytes before and after application of the permeabilising agent (either saponin or β-Escin). Freshly dissociated cardiac muscle cells were obtained in a solution of low calcium. These were filtered and transferred into two 13.5 ml test tubes. Each was centrifuged for approximately 12 seconds at 5 g and the supernatant was discarded. Approximately 4.5 ml of EGTA solution was used to re-suspend the pellet in each tube. The contents of both were combined to form the stock suspension.
Access of the vital dye Trypan blue (MW: 950 approx.) into myocytes was used to evaluate permeabilisation by Saponin (Calbiochem brand) or β-escin. Permeabilised myocytes were identified by positive staining (blue colour) of the cell contents. Cells with intact membranes excluded the dye and it was this population that was counted.
For each run utilising the trypan blue assay, eight 13.5 ml test tubes were obtained. Each was labelled control 1, control 2, 0.1, 1, 10, 100, 1000 or 10000.
The cell stock suspension was agitated to ensure uniform distribution of cells and exactly 1 ml was pipetted into each tube. These were then transferred to the fridge to prevent degradation of the cells. Each tube was put through the following protocol in turn. The required volume of permeabilising agent was added (see Table 2) and a stopclock was started.
Once the incubation time had elapsed the tube was centrifuged for approximately 12 seconds at 5 g and the supernatant was withdrawn. The pellet was re-suspended in 0.5 mls of EGTA solution and 0.5 mls of 0.5% Trypan blue (BDH Laboratory Supplies, Poole, England) in 5 mM EGTA, which had been previously gently heated to ensure that the dye was dissolved. The tube was agitated and cell density determined by hamocytometer counting.
The protocol was followed for all concentrations under investigation; for the two controls no permeabilising agent was added and thus no incubation step was required.
(§3) Graphs were plotted and non-linear logistic curves were fitted using least squares technique by the Microcal™ Origin™ package (version 5.0, Microcal Software Inc.). ED50 values and their associated errors were also estimated using this software. Analysis of variance (ANOVA) using Tukey's post-test comparison was used to verify significance between ED50 values (GraphPad InStat™, GraphPad Software, V2.05a).

myocytes [2] = assay: Ca2+-contraction assay (rod count by haemocytometer); assay type: cell-based, rabbit
Source text: as §1, §2
Physiologically, myofilaments are activated by a rapid increase in the cytosolic Ca^2+ concentration from 0.1 μM to approximately 2 μM which occurs mainly due to Ca^2+ release from the SR (Levick, 2000). The Ca^2+-contraction assay used in this investigation relies upon the fact that cells with permeabilised membranes allow free access of Ca^2+ to the cytosol when exposed to high extracellular Ca^2+ concentrations. This activates the myofilaments of the cell causing it to contract into a ball. Non-permeabilised myocytes retain their characteristic rod shape. The effects of permeabilising agents on the cell population were quantified by counting the proportion of rod-shaped cells.
On each run utilising the Ca^2+-contraction assay, sixteen 13.5 ml test tubes were obtained. Eight of these were labelled “EGTA” whilst the remaining eight were labelled “CaEGTA”. Within both sets of eight, individual tubes were labelled control 1, control 2, 0.01, 0.1, 1, 10, 100 and 1000.
The cell stock suspension was agitated to ensure uniform distribution of cells and exactly 1 ml was pipetted into each tube labelled “EGTA”. These tubes were then transferred to the fridge to prevent degradation of the cells.
Each tube was put through the following protocol in turn. The required volume of permeabilising agent was added (see Table 2) and a stopclock was started. During the two minute incubation time, exactly 0.5 mls of the contents of the “EGTA” tube was withdrawn using a pipette and transferred to the corresponding “CaEGTA” tube.
Once the incubation time had elapsed the tubes were centrifuged for approximately 12 seconds at 5 g and the supernatant was withdrawn. The “EGTA” pellet was re-suspended in 0.5 mls of EGTA solution and the “CaEGTA” pellet in 0.5 mls of CeEGTA solution. Both tubes were agitated and the cell density determined by haemocytometer. The protocol was followed for all concentrations under investigation; for the two controls no permeabilising agent was added and thus no incubation step was required.
The effect of exposing myocytes to exceedingly high concentrations of permeabilising agent ([…]) was investigated for both β-Escin and saponin. The protocol followed was the same as the Ca^2+-contraction assay protocol (described above). 100 μl of the 100 mg/ml stock was added to the 1 ml suspension volume to achieve the required concentration (see Table 2). A control plus a low concentration of agent (1 μg/ml) were also studied to validate results.
The concentrations investigated were 1, 10, 100 and 1000 μg/ml for each saponin plus two controls. The experimental protocol followed was the same as for the Ca^2+-contraction assay method above.
as §3

cardiac myocytes = assay: Permeabilisation of a sample of cardiac myocytes; assay type: cell-based; details: at 1 mg/ml

**Q.** How did the “effect on caffeine-stimulated Ca2+ leak from SR” value (ryanodine receptor) turn out when `N.N.N.N.N.N.N.N.N.N.N.N.N.N.[Cl-].[Cl-].[Cl-].[Cl-].[Cl-].[Cl-].[O-2].[O-2].[Ru+3].[Ru+3].[Ru+4]` [ruthenium red] was run?
**A.** Its value is “blocked”.

**Q.** With `C/C=C(/C)C(=O)O[C@H]1C(C)=C2[C@H]([C@@H]1OC(=O)CCCCCCC)[C@@](C)(OC(C)=O)C[C@H](OC(=O)CCC)[C@@]1(O)[C@H]2OC(=O)[C@@]1(C)O` [thapsigargin] as the compound, how does the “effect on SERCA” value (SR Ca2+ ATPase (SERCA)) read?
**A.** Its value is “inhibition”.

**Q.** β-escin was tested. Which “concentration from which trypan blue began to enter the myocytes” value (myocytes [1]) did it give?
**A.** Its value is 1 to 10 µg/mL.

**Q.** And the “mean rod count excluding dye” value (myocytes [1]; at 0.1 μg/ml)?
**A.** The value was “approximately 90%”.

**Q.** And the “mean rod count excluding dye” value (myocytes [1]; at 1 μg/ml)?
**A.** Its value is “approximately 110%”.

**Q.** What about the “decrease of mean rod count, of the control value” (myocytes [1]; at 10 μg/ml) of the same compound?
**A.** The value was “approximately 35%”.

**Q.** And the “proportion of control population permeable to trypan blue” value (shortened to “proportion … to trypan blue”) (myocytes [1]; at 100 μg/ml)?
**A.** The value was “Approximately 100%”.

**Q.** What about the “proportion … to trypan blue” value (myocytes [1]; at 1000 μg/ml) of the same compound?
**A.** Its value is “Approximately 100%”.

**Q.** What about the “proportion … to trypan blue” value (myocytes [1]; at 10000 μg/ml) of the same compound?
**A.** Its value is “Approximately 100%”.

**Q.** What about the minimum effective concentration (myocytes [1]; trypan blue assay) of the same compound?
**A.** Its minimum effective concentration is 100 µg/mL.

**Q.** And the “concentration at which permeabilisation (decrease in rod count in 5 mM Ca2+ EGTA) began” value (myocytes [2]; Ca2+-contraction assay)?
**A.** The value was 10 µg/mL.

**Q.** And the “concentration range over which permeabilisation was produced” value (myocytes [2]; Ca2+-contraction assay)?
**A.** Its value is 1 to 10000 µg/mL.

**Q.** What about the minimum effective concentration (myocytes [2]; Ca2+-contraction assay, 5 mM Ca2+ EGTA) of the same compound?
**A.** The minimum effective concentration was 100 µg/mL.

**Q.** And the “proportion of cell population hyperpermeable / permeabilised” value (myocytes [2]; at 100 μg/ml)?
**A.** The value was “Approximately 100%”.

**Q.** What about the “proportion of cell population hyperpermeable / permeabilised” value (myocytes [2]; at 1000 μg/ml) of the same compound?
**A.** The value was “Approximately 100%”.

**Q.** And the “proportion of cell population hyperpermeable / permeabilised” value (myocytes [2]; at 10000 μg/ml)?
**A.** Its value is “Approximately 100%”.

**Q.** What about the “proportion of cardiac myocytes permeabilised” value (cardiac myocytes) of the same compound?
**A.** Its value is “about 10%”.
